Experimental data as given in ChEMBL document CHEMBL5678818, “Discovery of potent SOS1 inhibitors that block RAS activation via disruption of the RAS-SOS1 interaction” (Proc Natl Acad Sci U S A, 2019).

Tests used:
[1] = target: T1, Cyclin-G-associated kinase (Homo sapiens) (UniProt O14976); assay: Inhibition of GAK (unknown origin) assessed as residual activity at 1000 nM by KINOMEscan analysis relative to control
T1 sequence (whole entry): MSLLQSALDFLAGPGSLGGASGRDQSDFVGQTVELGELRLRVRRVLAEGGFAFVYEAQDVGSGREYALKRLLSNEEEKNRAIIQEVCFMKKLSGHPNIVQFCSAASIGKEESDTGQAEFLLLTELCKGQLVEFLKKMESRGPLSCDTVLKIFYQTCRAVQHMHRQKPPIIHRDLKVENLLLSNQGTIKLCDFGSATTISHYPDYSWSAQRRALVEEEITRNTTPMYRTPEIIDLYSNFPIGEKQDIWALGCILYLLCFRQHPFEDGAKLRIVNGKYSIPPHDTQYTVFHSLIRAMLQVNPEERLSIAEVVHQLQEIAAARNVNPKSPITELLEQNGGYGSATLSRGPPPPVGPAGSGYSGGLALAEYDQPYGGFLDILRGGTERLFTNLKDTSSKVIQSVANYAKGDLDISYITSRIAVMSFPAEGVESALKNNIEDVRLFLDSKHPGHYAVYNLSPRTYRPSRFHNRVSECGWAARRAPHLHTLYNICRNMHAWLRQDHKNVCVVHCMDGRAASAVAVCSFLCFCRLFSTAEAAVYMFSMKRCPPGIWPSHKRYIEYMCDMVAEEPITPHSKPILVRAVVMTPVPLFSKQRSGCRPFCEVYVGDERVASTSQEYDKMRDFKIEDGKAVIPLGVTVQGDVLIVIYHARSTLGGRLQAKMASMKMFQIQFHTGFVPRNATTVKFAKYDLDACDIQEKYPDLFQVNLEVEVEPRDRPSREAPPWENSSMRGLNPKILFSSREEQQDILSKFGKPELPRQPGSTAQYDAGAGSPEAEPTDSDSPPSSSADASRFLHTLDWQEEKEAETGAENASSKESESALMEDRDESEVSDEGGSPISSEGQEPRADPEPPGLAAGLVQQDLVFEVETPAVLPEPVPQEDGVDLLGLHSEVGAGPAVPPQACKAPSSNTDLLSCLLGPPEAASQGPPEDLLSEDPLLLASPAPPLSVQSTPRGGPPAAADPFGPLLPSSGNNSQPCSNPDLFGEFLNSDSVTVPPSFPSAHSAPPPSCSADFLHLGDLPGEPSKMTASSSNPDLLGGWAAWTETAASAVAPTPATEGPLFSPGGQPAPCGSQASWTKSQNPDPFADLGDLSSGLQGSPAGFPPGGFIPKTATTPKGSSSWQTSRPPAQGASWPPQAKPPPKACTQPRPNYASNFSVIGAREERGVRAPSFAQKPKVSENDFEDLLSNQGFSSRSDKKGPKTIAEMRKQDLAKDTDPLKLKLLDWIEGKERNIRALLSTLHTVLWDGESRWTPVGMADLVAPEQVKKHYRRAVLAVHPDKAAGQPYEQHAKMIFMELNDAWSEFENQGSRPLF

[2] = target: MAP kinase-interacting serine/threonine-protein kinase 2 (Homo sapiens) (UniProt Q9HBH9); assay: Inhibition of MKNK2 (unknown origin) assessed as residual activity at 1000 nM by KINOMEscan analysis relative to control
[3] = target: Serine/threonine-protein kinase SIK3 (Homo sapiens) (UniProt Q9Y2K2); assay: Inhibition of QSK (unknown origin) assessed as residual activity at 1000 nM by KINOMEscan analysis relative to control
[4] = target: T2, Uncharacterized serine/threonine-protein kinase SBK3 (Homo sapiens) (UniProt P0C264); assay: Inhibition of SgK110 (unknown origin) assessed as residual activity at 1000 nM by KINOMEscan analysis relative to control
T2 sequence (whole entry): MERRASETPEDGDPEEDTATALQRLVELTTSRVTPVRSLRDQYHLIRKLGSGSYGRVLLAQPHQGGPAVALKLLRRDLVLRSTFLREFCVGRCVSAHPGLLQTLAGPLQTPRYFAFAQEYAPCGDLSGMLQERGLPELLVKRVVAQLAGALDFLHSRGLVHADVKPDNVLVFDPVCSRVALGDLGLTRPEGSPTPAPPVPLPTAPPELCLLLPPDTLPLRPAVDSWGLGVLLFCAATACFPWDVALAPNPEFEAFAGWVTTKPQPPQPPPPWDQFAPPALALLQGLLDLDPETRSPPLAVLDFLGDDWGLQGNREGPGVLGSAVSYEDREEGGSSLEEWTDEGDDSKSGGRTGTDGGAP

[5] = target: T3, Serine/threonine-protein kinase TAO1 (Homo sapiens) (UniProt Q7L7X3); assay: Inhibition of TAOK1 (unknown origin) assessed as residual activity at 1000 nM by KINOMEscan analysis relative to control
T3 sequence (whole entry): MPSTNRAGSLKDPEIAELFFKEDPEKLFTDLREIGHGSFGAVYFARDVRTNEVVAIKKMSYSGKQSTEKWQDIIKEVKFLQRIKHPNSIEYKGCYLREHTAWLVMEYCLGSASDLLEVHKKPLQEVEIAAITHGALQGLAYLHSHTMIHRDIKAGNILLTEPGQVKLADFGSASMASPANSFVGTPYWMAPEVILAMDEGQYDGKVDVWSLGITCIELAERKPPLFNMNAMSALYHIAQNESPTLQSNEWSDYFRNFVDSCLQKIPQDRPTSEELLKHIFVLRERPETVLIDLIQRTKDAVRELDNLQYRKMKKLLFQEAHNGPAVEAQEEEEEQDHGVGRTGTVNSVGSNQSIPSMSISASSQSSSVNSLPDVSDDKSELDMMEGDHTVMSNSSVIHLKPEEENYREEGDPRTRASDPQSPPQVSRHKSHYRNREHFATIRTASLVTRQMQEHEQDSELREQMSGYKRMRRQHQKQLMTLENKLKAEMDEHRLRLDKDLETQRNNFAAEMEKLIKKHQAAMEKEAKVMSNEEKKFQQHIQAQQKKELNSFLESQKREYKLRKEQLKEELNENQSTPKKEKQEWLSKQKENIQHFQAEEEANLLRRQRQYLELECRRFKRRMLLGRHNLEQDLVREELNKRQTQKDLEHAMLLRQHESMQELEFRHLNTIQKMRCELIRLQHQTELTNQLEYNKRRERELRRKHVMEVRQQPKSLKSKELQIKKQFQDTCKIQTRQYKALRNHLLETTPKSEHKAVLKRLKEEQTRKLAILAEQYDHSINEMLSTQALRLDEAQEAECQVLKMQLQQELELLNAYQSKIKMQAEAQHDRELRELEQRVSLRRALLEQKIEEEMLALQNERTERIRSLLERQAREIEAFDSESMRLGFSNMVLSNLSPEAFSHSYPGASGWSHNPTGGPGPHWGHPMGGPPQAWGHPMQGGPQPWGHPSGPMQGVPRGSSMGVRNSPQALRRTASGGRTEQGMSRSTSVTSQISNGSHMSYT

[6] = target: Activin receptor type-1 (Homo sapiens) (UniProt Q04771); assay: Inhibition of ACVR1 (unknown origin) assessed as residual activity at 1000 nM by KINOMEscan analysis relative to control
Activin receptor type-1 (Homo sapiens), sequence (Q04771 whole entry, looked up): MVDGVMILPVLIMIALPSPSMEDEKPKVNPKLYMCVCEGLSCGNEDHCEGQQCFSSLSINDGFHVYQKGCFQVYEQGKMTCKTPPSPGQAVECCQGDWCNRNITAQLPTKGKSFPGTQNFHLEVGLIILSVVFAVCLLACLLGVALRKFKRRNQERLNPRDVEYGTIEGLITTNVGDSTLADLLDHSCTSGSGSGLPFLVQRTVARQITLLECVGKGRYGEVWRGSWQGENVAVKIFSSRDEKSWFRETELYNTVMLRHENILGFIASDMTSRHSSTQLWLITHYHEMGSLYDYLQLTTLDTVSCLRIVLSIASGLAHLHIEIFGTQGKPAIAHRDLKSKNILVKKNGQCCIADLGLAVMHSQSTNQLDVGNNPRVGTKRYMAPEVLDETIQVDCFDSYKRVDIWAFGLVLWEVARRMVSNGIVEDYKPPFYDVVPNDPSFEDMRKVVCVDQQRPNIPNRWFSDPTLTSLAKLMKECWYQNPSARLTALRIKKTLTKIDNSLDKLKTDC

MAP kinase-interacting serine/threonine-protein kinase 2 (Homo sapiens), sequence (Q9HBH9 whole entry, looked up): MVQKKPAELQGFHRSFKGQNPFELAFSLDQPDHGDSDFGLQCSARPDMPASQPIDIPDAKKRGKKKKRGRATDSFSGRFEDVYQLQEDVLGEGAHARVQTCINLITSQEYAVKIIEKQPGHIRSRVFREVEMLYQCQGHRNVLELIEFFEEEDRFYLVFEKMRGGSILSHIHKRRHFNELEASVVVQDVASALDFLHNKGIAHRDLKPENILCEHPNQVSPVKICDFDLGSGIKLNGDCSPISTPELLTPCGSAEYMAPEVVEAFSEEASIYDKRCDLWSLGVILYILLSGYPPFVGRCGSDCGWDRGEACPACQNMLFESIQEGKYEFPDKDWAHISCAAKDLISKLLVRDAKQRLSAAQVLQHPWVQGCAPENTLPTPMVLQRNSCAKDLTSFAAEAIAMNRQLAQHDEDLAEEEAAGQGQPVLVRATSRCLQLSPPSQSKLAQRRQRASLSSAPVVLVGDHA
Serine/threonine-protein kinase SIK3 (Homo sapiens), sequence (Q9Y2K2 whole entry, looked up): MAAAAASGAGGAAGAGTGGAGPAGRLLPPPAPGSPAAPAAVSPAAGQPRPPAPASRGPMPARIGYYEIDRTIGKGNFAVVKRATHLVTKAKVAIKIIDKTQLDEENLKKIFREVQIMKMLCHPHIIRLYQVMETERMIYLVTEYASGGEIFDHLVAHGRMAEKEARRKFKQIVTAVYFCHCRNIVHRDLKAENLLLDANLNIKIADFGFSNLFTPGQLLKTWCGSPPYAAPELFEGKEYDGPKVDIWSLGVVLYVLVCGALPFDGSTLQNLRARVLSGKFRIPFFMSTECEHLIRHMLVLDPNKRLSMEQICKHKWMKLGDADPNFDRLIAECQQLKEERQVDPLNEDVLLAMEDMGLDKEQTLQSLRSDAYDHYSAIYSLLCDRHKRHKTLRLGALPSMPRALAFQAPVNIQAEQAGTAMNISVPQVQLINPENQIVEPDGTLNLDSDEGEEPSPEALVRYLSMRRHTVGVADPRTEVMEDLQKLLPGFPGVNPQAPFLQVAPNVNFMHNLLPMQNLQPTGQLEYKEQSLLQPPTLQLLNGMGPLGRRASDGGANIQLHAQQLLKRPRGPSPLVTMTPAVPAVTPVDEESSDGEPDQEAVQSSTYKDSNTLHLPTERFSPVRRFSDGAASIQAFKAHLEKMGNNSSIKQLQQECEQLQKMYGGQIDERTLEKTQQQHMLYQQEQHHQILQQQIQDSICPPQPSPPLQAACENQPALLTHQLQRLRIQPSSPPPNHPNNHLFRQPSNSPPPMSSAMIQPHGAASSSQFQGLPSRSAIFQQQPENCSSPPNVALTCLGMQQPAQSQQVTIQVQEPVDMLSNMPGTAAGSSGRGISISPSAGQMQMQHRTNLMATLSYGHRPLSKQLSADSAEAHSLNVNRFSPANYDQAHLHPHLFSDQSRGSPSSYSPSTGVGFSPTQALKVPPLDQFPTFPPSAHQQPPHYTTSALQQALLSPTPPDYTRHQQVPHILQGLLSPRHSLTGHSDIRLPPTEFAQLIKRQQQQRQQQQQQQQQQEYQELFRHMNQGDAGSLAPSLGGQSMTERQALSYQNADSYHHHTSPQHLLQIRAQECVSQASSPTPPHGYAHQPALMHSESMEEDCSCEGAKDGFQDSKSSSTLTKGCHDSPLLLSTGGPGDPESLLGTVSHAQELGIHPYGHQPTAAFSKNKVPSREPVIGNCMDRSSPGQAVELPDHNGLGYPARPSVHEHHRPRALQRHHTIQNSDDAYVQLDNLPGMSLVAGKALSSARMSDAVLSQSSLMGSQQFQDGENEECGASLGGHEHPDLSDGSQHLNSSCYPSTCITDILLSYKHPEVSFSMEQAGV

With COc1cc2ncnc(N[C@H](C)c3cccc4ccccc34)c2cc1OC the Activity [1] was 59%, the Activity [2] was 100% and the Activity [3] was 84%. It also gave an Activity [4] of 100%, an Activity [5] of 89% and an Activity [6] of 100%.

With COc1cc2nc(C)nc(N[C@H](C)c3cccc(-c4cn[nH]c4)c3)c2cc1OC the Activity [1] was 96%, the Activity [2] was 89% and the Activity [3] was 83%. For the same compound, the Activity [4] was 100%, the Activity [5] was 100% and the Activity [6] was 100%.
